{
  "source": "paper PMC12768458",
  "about": "(European journal of medicinal chemistry, 2025)",
  "key": {"CCL2 mRNA expression": {"system": "CCL2 mRNA expression", "conditions": "LPS-induced TSECs, prior work ref 27; cited from earlier work"}, "BET bromodomains": {"system": "BET bromodomains", "assay": "differential scanning fluorimetry", "format": "binding", "conditions": "DSF, majority of BET bromodomains"}, "CXCL1 mRNA expression": {"system": "CXCL1 mRNA expression", "conditions": "LPS-induced TSECs, prior work ref 27; cited from earlier work"}, "BRD3-D2": {"biological_target": "BRD3-D2 (Homo sapiens, UniProt Q15059)", "sequence (Q15059 306-415 limits assumed)": "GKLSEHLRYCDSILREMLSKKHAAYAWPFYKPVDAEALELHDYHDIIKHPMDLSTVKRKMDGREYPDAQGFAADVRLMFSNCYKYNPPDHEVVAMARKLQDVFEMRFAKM", "assay": "differential scanning fluorimetry", "format": "binding", "conditions": "DSF"}, "NLuc-BRD4-D1": {"biological_target": "NLuc-BRD4-D1 (Homo sapiens, UniProt O60885)", "assay": "live-cell NanoBRET competition assay in HEK293T", "format": "cell-based", "conditions": "1.25 μM, 2 h at 37 °C"}, "BRD2-D2": {"biological_target": "BRD2-D2 (Homo sapiens, UniProt P25440)", "sequence (P25440 344-453 limits assumed)": "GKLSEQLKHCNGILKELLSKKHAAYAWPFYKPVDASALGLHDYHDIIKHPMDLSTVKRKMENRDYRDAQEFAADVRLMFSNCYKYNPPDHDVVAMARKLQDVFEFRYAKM", "assay": "differential scanning fluorimetry", "format": "binding", "conditions": "DSF"}, "[1]": {"system": "colony forming megakaryocyte", "conditions": "CFU-Mk ref 14; cited from earlier work"}},
  "data": [
    {"smiles": "COc1cc2c(cc1-c1c(C)noc1C)ncc1[nH]c(=O)n([C@H](C)c3ccccn3)c12", "note": "[IBET-151]", "values": [
      {"measurement": "CCL2 expression, in words", "setting": "CCL2 mRNA expression", "result": "decrease in CCL2 mRNA levels comparable to control levels"},
      {"measurement": "stabilization in melting temperature", "setting": "BET bromodomains", "result": "> 6", "unit": "°C"},
      {"measurement": "CXCL1 expression, in words", "setting": "CXCL1 mRNA expression", "result": "significant efficacy in reducing the downstream expression of CXCL1 and CCL2"},
      {"measurement": "stabilization in melting temperature", "setting": "BRD3-D2", "result": "3.96 ±0.09", "unit": "°C"},
      {"measurement": "% inhibition of BRD4-D1", "setting": "NLuc-BRD4-D1", "result": "85 ±6", "unit": "%"},
      {"measurement": "stabilization in melting temperature", "setting": "BRD2-D2", "result": "3.70 ±0.12", "unit": "°C"}
    ]},
    {"smiles": "CC(=O)Nc1c(F)cc(C(=O)N[C@H]2CC[C@H](O)CC2)cc1O[C@@H](C)c1ccccc1", "note": "[iBET-BD2]", "values": [
      {"measurement": "CXCL1 expression, in words", "setting": "CXCL1 mRNA expression", "result": "does not significantly reduce the expression of CXCL1"}
    ]},
    {"smiles": "CCNC(=O)c1cc2c(-c3cc(C(C)(C)O)ccc3Oc3c(C)cc(F)cc3C)cn(C)c(=O)c2[nH]1", "note": "[ABBV-744]", "values": [
      {"measurement": "less toxic compared to ABBV-075", "setting": "[1]", "result": 18, "unit": "fold"}
    ]}
  ]
}
